Source: PubChem BioAssay AID1963853 (Molecular Pharmacology Branch, DTP, NCI, 2024)
Several values for one entry are separate records, joined by “and”; a condition that tells them apart may be missing. Equal values may be shown once.

Test system: 266295-075-R-J1-PDC spheroid viability
Assay: Anticancer human tumor 266295-075-R-J1-PDC patient-derived head and neck squamous carcinoma cell line growth inhibition [POLQ]
Conditions: spheroids with HUVEC and MSC; for viability, T/C: stronger effect = lower value; active = viability on the fitted dose curve at most 10% of control; inactive = the rest
Description: Multicellular complex tumor spheroid response to Polymerase (POL) inhibitors (novobiocin, ART-558, RP6685) in combination with a variety of drugs and investigational agents in selected tumor cell lines
The POL inhibitors (novobiocin, ART-558, and RP6685) were evaluated both individually and in combination with standard of care and investigational anticancer small molecules within a complex spheroid model of solid tumors. . Complex spheroids include a stromal component modeled by human endothelial cells (HUVEC) and fibroblasts modeled by human mesenchymal stem cells (MSCs). The concentration ranges selected for each drug and investigational agent were based upon clinically achievable concentrations if the clinical Cmax of the agent was known.
Compounds. The drugs and investigational agents: novobiocin (NSC847541), ART-558 (NSC835418), RP-6685 (NSC848927), peposertib (NSC802822), ceralasertib (NSC780249), elimusertib (NSC800525), camonsertib (NSC841442), AZD-1390 (NSC803789), olaparib (NSC753686), talazoparib (NSC767125), rucaparib (NSC756644), sotorasib (NSC818433), MRTX-1133 (NSC836407), SN-38 (NSC673596), topotecan (NSC609699), epotoside (NSC141540), doxorubicin (NSC123127), gemcitabine (NSC613327), 5-fluorouracil (NSC19893), paclitaxel (NSC125973), vemurafenib (NSC761431), MSA-2 (NSC828583), SN-011 (NSC837082), adavosertib (NSC754352), prexasertib (NSC758257), carboplatin (NSC241240) and oxaliplatin (NSC266046), were obtained from the National Cancer Institute (NCI) Developmental Therapeutics Program Chemical Repository (21). The FDA-approved anticancer drug set is available from the Developmental Therapeutics Program at https://dtp.cancer.gov/organization/dscb/obtaining/. […] The stock solutions were prepared in dimethyl sulfoxide (DMSO, Sigma-Aldrich, St. Louis, MO, cat. D2650), except for the platinum compounds which were prepared in saline (Quality Biological, Gaithersburg, MD, cat. 114-055-101), at 800-fold the tested concentration and stored at -70 degrees C prior to their use. All drugs and investigational agents were tested over a range starting from a high concentration at or near the clinical Cmax and decreasing in half-log increments. If the clinical Cmax for an agent had not been determined, the highest concentration tested was 10 microM, except for SN-38, which was tested at a high concentration of 1 microM.
Cell Culture. All cells were maintained in an incubator at 37 degrees C and 5% CO2 with 95% humidity. The PDC lines were cultured according to standard operating procedures established by the NCI PDMR (https://pdmr.cancer.gov). Table 3 of the manuscript, lists the cell lines along with the number of the three cell types plated to form the mct-spheroids and media for tumor cell growth. After thawing, all PDC lines, except 997537-175-T-J1-PDC and 415267-285-R-J2-PDC, were cultured in Matrigel-coated flasks prepared with a working solution of 1X Ham's F-12 nutrient mix, without supplementation (Thermo Fisher Scientific, cat. 11765054), 100 U/mL penicillin-streptomycin (Thermo Fisher Scientific, cat. 15140122), and 2.5% Matrigel (Corning Inc., Corning, NY, cat. 354248) for the first three passages. The two PDC lines 997537-175-T-J1-PDC and 415267-285-R-J2-PDC were cultured on uncoated flasks. The 857933-349-R-J2-PDC line was cultured in 6C/Colon 1B media containing advanced DMEM/F-12 (Thermo Fisher Scientific, cat. 12634028), 10 mM HEPES (Thermo Fisher Scientific, cat. 15630080), 1X GlutaMAX supplement (Thermo Fisher Scientific, cat. 35050061), 0.1 mg/mL primocin (InvivoGen, San Diego, CA, cat. ant-pm-2), 10% defined fetal bovine serum, heat inactivated (HyClone Laboratories Inc., Logan, UT, cat. SH30070.03HI), 50% L-WRN conditioned media (ATCC, cat. CRL-3276), 1.25 mM N-Acetyl-L-cysteine (Sigma-Aldrich, cat. A9165), 10 mM nicotinamide (Sigma-Aldrich, cat. N0636), 1X B-27 supplement (Thermo Fisher Scientific, cat. 17504044), 1X N-2 supplement (Thermo Fisher Scientific, cat. […]
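Also: spheroids exposed to compounds for seven days before readout.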

O=C(c1cc(Cc2n[nH]c(=O)c3ccccc23)ccc1F)N1CCN(C(=O)C2CC2)CC1 + Nc1ccc(C#CCN(C(=O)Cc2ncc(C(F)(F)F)cc2C(F)(F)F)c2ccc(F)cc2)nn1
inactive: viability, T/C (second compound 0.0316 µM, first compound 0.0316 µM) 105% | viability, T/C (second compound 0.0316 µM, first compound 0.1 µM) 103% | viability, T/C (second compound 0.0316 µM, first compound 0.316 µM) 115% | viability, T/C (second compound 0.0316 µM, first compound 1 µM) 94.1% | viability, T/C (second compound 0.0316 µM, first compound 3.16 µM) 108% | viability, T/C (second compound 0.0316 µM, first compound 10 µM) 89% | viability, T/C (second compound 0.1 µM, first compound 0.0316 µM) 96.6% | viability, T/C (second compound 0.1 µM, first compound 0.1 µM) 88.2% | viability, T/C (second compound 0.1 µM, first compound 0.316 µM) 97.6% | viability, T/C (second compound 0.1 µM, first compound 1 µM) 92.9% | viability, T/C (second compound 0.1 µM, first compound 3.16 µM) 105% | viability, T/C (second compound 0.1 µM, first compound 10 µM) 89.5% | viability, T/C (second compound 0.316 µM, first compound 0.0316 µM) 124% | viability, T/C (second compound 0.316 µM, first compound 0.1 µM) 92.8% | viability, T/C (second compound 0.316 µM, first compound 0.316 µM) 77.1% | viability, T/C (second compound 0.316 µM, first compound 1 µM) 100% | viability, T/C (second compound 0.316 µM, first compound 3.16 µM) 80.6% | viability, T/C (second compound 0.316 µM, first compound 10 µM) 99.4% | viability, T/C (second compound 1 µM, first compound 0.0316 µM) 90.1% | viability, T/C (second compound 1 µM, first compound 0.1 µM) 106% | viability, T/C (second compound 1 µM, first compound 0.316 µM) 91.9% | viability, T/C (second compound 1 µM, first compound 1 µM) 97.7% | viability, T/C (second compound 1 µM, first compound 3.16 µM) 85.7% | viability, T/C (second compound 1 µM, first compound 10 µM) 87% | viability, T/C (second compound 3.16 µM, first compound 0.0316 µM) 92.7% | viability, T/C (second compound 3.16 µM, first compound 0.1 µM) 83.9% | viability, T/C (second compound 3.16 µM, first compound 0.316 µM) 91% | viability, T/C (second compound 3.16 µM, first compound 1 µM) 106% | viability, T/C (second compound 3.16 µM, first compound 3.16 µM) 106% | viability, T/C (second compound 3.16 µM, first compound 10 µM) 98.4% | viability, T/C (second compound 10 µM, first compound 0.0316 µM) 110% | viability, T/C (second compound 10 µM, first compound 0.1 µM) 99.7% | viability, T/C (second compound 10 µM, first compound 0.316 µM) 96.3% | viability, T/C (second compound 10 µM, first compound 1 µM) 97.7% | viability, T/C (second compound 10 µM, first compound 3.16 µM) 77% | viability, T/C (second compound 10 µM, first compound 10 µM) 81.8%
> 10 µM: IC50 (curve of first compound, second compound 0.0316 µM) | IC50 (curve of first compound, second compound 0.1 µM) | IC50 (curve of first compound, second compound 0.316 µM) | IC50 (curve of first compound, second compound 1 µM) | IC50 (curve of first compound, second compound 3.16 µM) | IC50 (curve of first compound, second compound 10 µM)

COc1ccc([C@@H](O)c2cc(-c3ncnc4cc(N5CCOCC5)ccc34)c(F)cc2Cl)nn1
inactive: viability, T/C (compound 0.0316 µM) 96.7% and 96.6% and 100% | viability, T/C (compound 0.1 µM) 89.4% and 101% and 98% | viability, T/C (compound 0.316 µM) 84.6% and 83% and 84% | viability, T/C (compound 1 µM) 60.7% and 73.9% and 67.8% | viability, T/C (compound 3.16 µM) 44.7% and 71.7% and 51.1% | viability, T/C (compound 10 µM) 39.7% and 44.2% and 39.9%
2.17 µM and 8.03 µM and 3.39 µM: IC50 (curve of compound)

O=c1[nH]cc(F)c(=O)[nH]1
> 10 µM: IC50 (curve of compound)
inactive: viability, T/C (compound 0.0316 µM) 98.7% and 96% and 115% | viability, T/C (compound 0.1 µM) 89.9% and 91.2% and 95.8% | viability, T/C (compound 0.316 µM) 86.7% and 97.9% and 89.4% | viability, T/C (compound 1 µM) 89.8% and 116% and 102% | viability, T/C (compound 3.16 µM) 80.7% and 102% and 94.3% | viability, T/C (compound 10 µM) 89.4% and 89% and 84.3%
